Results: patent publication US20140228299A1, “PROPHYLACTIC AND THERAPEUTIC AGENT FOR NEUROLOGICAL DISEASES USING LIPOPROTEINS AND PROPHYLACTIC AND THERAPEUTIC METHOD FOR NEUROLOGICAL DISEASES” (National University Corporation Tokyo Medical and Dental …, priority 2011, published 2014)
Non-standard residues stand in square brackets, D forms with d. Residues, ends and D or L forms follow the SMILES beside them. *: point of attachment. Nle = CCCC[C@H](N)C(=O)O; Cbz = O=C(OCc1ccccc1)*; CH2F = FC*

Test system: retinal ganglion cells
Assay: Glutamic acid-induced apoptosis of cultured retinal ganglion cells (Hoechst 33342 or calcein AM/propidium iodide staining)
Type: cell-based, rat
Conditions: for apoptosis of retinal cells induced by glutamic acid (apoptosis-like cells): Hoechst 33342
Protocol: The primary culture of the retinal glia cells was carried out using two-day-old Sprague Dawley (SD) baby rats in accordance with a somewhat modified method (Hayashi et al., J. Biol. Chem. 2009) of the method of Barres et al. (Barres, et al., 1988). The isolated retinal glia cells (RGC) were suspended in a base culture medium of a RGC medium (1 mM glutamine, 5 μg/mL insulin, 60 μg/mL N-acetylcysteine, 62 ng/mL progesterone, 16 μg/mL putrescine, 40 ng/mL sodium selenite, 0.1 mg/mL bovine serum albumin, 40 ng/mL triiodothyronine, 0.1 mg/mL transferrin, 1 mM sodium pyruvate, 2% B27 supplement (Invitrogen, Carlsbad, Calif.), 10 μM forskolin (Sigma, St. Louis, Mo.), 50 ng/mL brain-derived neurotrophic factor (BDNF; PeproTech, Rocky Hill, N.J.), 50 ng/mL ciliary neurotrophic factor (CNTF; Peprotech), and 50 ng/mL basic fibroblast growth factor (bFGF; PeproTech). A 96-well plate was coated with poly-d-lysine (Sigma) and laminin (Sigma), and RGC was placed at the rate of 5,000 cells per well for the 96-well place, 5,000 cells per each culture insert for microdish, or 15,000 cells per dish for compartmentalized culture, followed by incubating for at least 10 days before experimentation.
In the figure, Cant represents a non-treated group, Glu represents a group with 300 μM glutamic acid added, and +glial LP represents a group with 300 μM glutamate+glia-cell-derived lipoprotein containing apolipoprotein E added. Glial LP was added in the concentration of 1 μg cholesterol/mL. After treatment, the rate of apoptosis-like cells was computed by observing the aggregation of the nuclei (a: nuclear staining with Hoechst 33342) or the sustained impermeability of esterase activity/membrane (b: calcein AM/Propidium Iodide staining) in 24 hours.
The induction and detection of apoptosis in RGC were performed in the manner as described below. Specifically, RGC was washed twice with Hanks' balanced salt solution (HBSS) containing 2.4 mM CaCl2 and 20 mM HEPES, but not containing magnesium, and incubated at 37° C. for 2 hours in a medium prepared by adding 300 μM glutamate and 10 μM glycine to the above Hanks' balanced salt solution. After treatment with glutamate, RGC was incubated at 37° C. for 22 hours in a RGC culture medium containing no forskolin, BDNF, CNTF and bFGF. In order to detect apoptosis, RGC was stained with 1 μg/mL of Hoechst 33342 (346-07951, Dojindo, Kumamoto, Japan) or 1 μg/mL of calcein-AM/propidium iodide (341-07381, Dojindo). The fluorescence images were observed by Olympus IX71 microscope. The fragmented or aggregated nuclei stained with the above Hoechst reagent were counted as apoptotic nuclei, and round and smooth nuclei were counted as sound nuclei. As the sound nuclei were not stained with propidium iodide, the nuclei stained with propidium iodide were counted as apoptotic nuclei. More than 300 nuclei were counted in each group.
The apoptosis of RGC was measured in the following manner. The RGC subjected to the primary incubated was incubated two times at 37° C. for 15 minutes using Hanks' Balanced Salt Solution (HBSS) containing 2.4 mM CaCl2 and 20 mM 4-(2-hydroxyethyl)-pyperazine-1-ethanesulfonic acid (HEPES) but containing no magnesium and then washed. […], the magnesium was removed from the washing solution. Thereafter, the RGC was treated or not treated with […] (a co-activating agent for the NMDA receptor) in HBSS containing 2.4 mM CaCl2 and 20 mM HEPES (without magnesium) and then incubated at 37° C. for 2 hours. A control (HBSS containing 2.4 mM CaCl2 and 20 mM HEPES (without containing magnesium)) or the RGC treated or not treated with glutamic acid was incubated at 37° C. for 22 hours in the same medium as used for the RGC (without forskolin, brain-derived neurotrophic factor, ciliary neurotrophic factor and basic fibroblast growth factor). […]

Q: With COC(=O)C[C@H](NC(=O)[C@H](C)NC(=O)[C@@H](NC(=O)OCc1ccccc1)C(C)C)C(=O)CF [Z-VAD-FMK, reference compound] (Cbz-Val-Ala-Asp(OMe)-CH2F) as the molecule, how does the “apoptosis of retinal cells induced by glutamic acid (apoptosis-like cells)” value (“apoptosis of retinal cells induced” below) (inhibitor 20 μM) read?
A: apoptosis inhibition

Q: With CCCC[C@@H](C=O)NC(=O)[C@H](CC(C)C)NC(=O)[C@H](CC(C)C)NC(C)=O [ALLN, reference compound] (Ac-Leu-Leu-[Nle]-aldehyde) as the molecule, how does the “apoptosis of retinal cells induced” value (inhibitor 1 μM) read?
A: inhibition of apoptosis

Q: Which “apoptosis of retinal cells induced” value (inhibitor 10 μM) does the source give for C[C@]12N[C@H](Cc3ccccc31)c1ccccc12 [MK 801, reference compound] here?
A: inhibition of apoptosis

B1: α2-macroglobulin: α2-macroglobulin activated with methylamine; hinders neuroprotection by apoE-containing lipoprotein (protein, UniProt P01023 24-1474, looked up)
Alpha-2-macroglobulin: SVSGKPQYMVLVPSLLHTETTEKGCVLLSYLNETVTVSASLESVRGNRSLFTDLEAENDVLHCVAFAVPKSSSNEEVMFLTVQVKGPTQEFKKRTTVMVKNEDSLVFVQTDKSIYKPGQTVKFRVVSMDENFHPLNELIPLVYIQDPKGNRIAQWQSFQLEGGLKQFSFPLSSEPFQGSYKVVVQKKSGGRTEHPFTVEEFVLPKFEVQVTVPKIITILEEEMNVSVCGLYTYGKPVPGHVTVSICRKYSDASDCHGEDSQAFCEKFSGQLNSHGCFYQQVKTKVFQLKRKEYEMKLHTEAQIQEEGTVVELTGRQSSEITRTITKLSFVKVDSHFRQGIPFFGQVRLVDGKGVPIPNKVIFIRGNEANYYSNATTDEHGLVQFSINTTNVMGTSLTVRVNYKDRSPCYGYQWVSEEHEEAHHTAYLVFSPSKSFVHLEPMSHELPCGHTQTVQAHYILNGGTLLGLKKLSFYYLIMAKGGIVRTGTHGLLVKQEDMKGHFSISIPVKSDIAPVARLLIYAVLPTGDVIGDSAKYDVENCLANKVDLSFSPSQSLPASHAHLRVTAAPQSVCALRAVDQSVLLMKPDAELSASSVYNLLPEKDLTGFPGPLNDQDNEDCINRHNVYINGITYTPVSSTNEKDMYSFLEDMGLKAFTNSKIRKPKMCPQLQQYEMHGPEGLRVGFYESDVMGRGHARLVHVEEPHTETVRKYFPETWIWDLVVVNSAGVAEVGVTVPDTITEWKAGAFCLSEDAGLGISSTASLRAFQPFFVELTMPYSVIRGEAFTLKATVLNYLPKCIRVSVQLEASPAFLAVPVEKEQAPHCICANGRQTVSWAVTPKSLGNVNFTVSAEALESQELCGTEVPSVPEHGRKDTVIKPLLVEPEGLEKETTFNSLLCPSGGEVSEELSLKLPPNVVEESARASVSVLGDILGSAMQNTQNLLQMPYGCGEQNMVLFAPNIYVLDYLNETQQLTPEIKSKAIGYLNTGYQRQLNYKHYDGSYSTFGERYGRNQGNTWLTAFVLKTFAQARAYIFIDEAHITQALIWLSQRQKDNGCFRSSGSLLNNAIKGGVEDEVTLSAYITIALLEIPLTVTHPVVRNALFCLESAWKTAQEGDHGSHVYTKALLAYAFALAGNQDKRKEVLKSLNEEAVKKDNSVHWERPQKPKAPVGHFYEPQAPSAEVEMTSYVLLAYLTAQPAPTSEDLTSATNIVKWITKQQNAQGGFSSTQDTVVALHALSKYGAATFTRTGKAAQVTIQSSGTFSSKFQVDNNNRLLLQQVSLPELPGEYSMKVTGEGCVYLQTSLKYNILPEKEEFPFALGVQTLPQTCDEPKAHTSFQISLSVSYTGSRSASNMAIVDVKMVSGFIPLKPTVKMLERSNHVSRTEVSSNHVLIYLDKVSNQTLSLFFTVLQDVPVRDLKPAIVKVYDYYETDEFAIAEYNAPCSKDLGNA
Q: For B1, which “effect on the neuroprotective effects of the lipoprotein containing apoE” value (Glu+100 ng protein/mL E-LP in the presence of a2M) is on record?
A: hinders the neuroprotective effects
